Data: ChEMBL document CHEMBL1128401, “Structure-activity relationships in the 8-amino-6,7,8,9-tetrahydro-3H-benz[e]indole ring system. 1. Effects of substituents in the aromatic system on serotonin and dopamine receptor subtypes” (J Med Chem, 1995)
Calls of active or inactive are those of the source. The rule behind the calls is not given here.

What was measured:
Rattus norvegicus [1] = assay: Bioavailability in male Sprague-Dawley rats, after the iv administration at a dose of 2.0(pmol/g/h); format: ADME, organism-based; settings: in vivo
Rattus norvegicus [2] = assay: Bioavailability in male Sprague-Dawley rats, after the po administration at a dose of 10.0(pmol/g/h); format: ADME, organism-based; settings: in vivo
[3] = Bioavailability in rat plasma following iv/po dose; format: ADME, organism-based
[4] = tmax in hours at a iv dose of 2.0(pmol/g/h).; format: ADME, organism-based; settings: in vivo
[5] = tmax in hours at a po dose of 10.0(pmol/g/h).; format: ADME, organism-based; settings: in vivo
[6] = Ratio of the 5-HTP accumulation decrease in limbic regions after oral and subcutaneous administration in rat.; format: functional, Limbic system
[7] = biological target: T1, 5-hydroxytryptamine receptor 1A (Rattus norvegicus, UniProt P19327); assay: Binding affinity against 5-hydroxytryptamine 1A receptor from CHO-K1 cells, using [3H]8-OH-DPAT as the radioligand.; format: cell-based
T1 sequence (P19327 whole entry): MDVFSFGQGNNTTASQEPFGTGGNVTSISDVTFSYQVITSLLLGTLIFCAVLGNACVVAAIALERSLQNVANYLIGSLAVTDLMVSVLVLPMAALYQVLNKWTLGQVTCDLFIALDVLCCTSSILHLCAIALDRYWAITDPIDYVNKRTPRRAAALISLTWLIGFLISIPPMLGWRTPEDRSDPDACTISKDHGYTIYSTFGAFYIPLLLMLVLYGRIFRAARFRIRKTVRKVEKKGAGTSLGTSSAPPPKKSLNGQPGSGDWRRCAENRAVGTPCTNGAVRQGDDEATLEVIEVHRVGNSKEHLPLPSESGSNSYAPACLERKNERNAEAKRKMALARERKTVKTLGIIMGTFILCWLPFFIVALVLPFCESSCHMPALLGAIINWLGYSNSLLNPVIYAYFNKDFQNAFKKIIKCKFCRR

[8] = biological target: 5-hydroxytryptamine receptor 1B (Homo sapiens, UniProt P28222); assay: Binding affinity against 5-hydroxytryptamine 1D receptor beta expressed in CHO-K1 cells, using [3H]5-HT as the radioligand.; format: cell-based
Sequence of 5-hydroxytryptamine receptor 1B (P28222 whole entry): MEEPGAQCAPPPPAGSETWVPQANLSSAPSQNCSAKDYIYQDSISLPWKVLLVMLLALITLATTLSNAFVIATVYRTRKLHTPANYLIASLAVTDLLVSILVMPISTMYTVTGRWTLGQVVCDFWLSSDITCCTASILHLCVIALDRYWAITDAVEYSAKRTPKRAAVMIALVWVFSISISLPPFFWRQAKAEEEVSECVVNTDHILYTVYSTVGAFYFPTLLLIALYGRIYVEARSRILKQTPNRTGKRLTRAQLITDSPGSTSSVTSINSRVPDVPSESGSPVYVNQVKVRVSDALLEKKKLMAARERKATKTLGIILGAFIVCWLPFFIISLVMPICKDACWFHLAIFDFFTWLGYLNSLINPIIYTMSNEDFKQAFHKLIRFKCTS

[9] = biological target: 5-hydroxytryptamine receptor 1D (Homo sapiens, UniProt P28221); assay: Binding affinity against 5-hydroxytryptamine 1D receptor alpha expressed in CHO-K1 cells, using [3H]-5-HT as the radioligand.; format: cell-based; settings: read-out: Ki
Sequence of 5-hydroxytryptamine receptor 1D (P28221 whole entry): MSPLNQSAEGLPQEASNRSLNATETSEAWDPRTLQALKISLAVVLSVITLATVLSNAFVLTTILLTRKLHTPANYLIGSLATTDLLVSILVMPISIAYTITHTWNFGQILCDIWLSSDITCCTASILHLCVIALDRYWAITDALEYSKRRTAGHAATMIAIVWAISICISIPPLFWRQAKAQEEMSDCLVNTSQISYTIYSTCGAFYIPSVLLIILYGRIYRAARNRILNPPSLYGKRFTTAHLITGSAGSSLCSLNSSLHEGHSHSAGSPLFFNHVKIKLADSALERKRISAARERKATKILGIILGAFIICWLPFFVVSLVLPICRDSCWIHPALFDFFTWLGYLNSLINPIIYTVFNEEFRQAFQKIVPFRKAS

D(2) dopamine receptor [10] = biological target: T2, D(2) dopamine receptor (Rattus norvegicus, UniProt P61169); assay: Binding affinity against Dopamine receptor D2 expressed in CHO-K1 cells, using [3H]U-86170 as the radioligand.; format: cell-based
T2 sequence (P61169 whole entry): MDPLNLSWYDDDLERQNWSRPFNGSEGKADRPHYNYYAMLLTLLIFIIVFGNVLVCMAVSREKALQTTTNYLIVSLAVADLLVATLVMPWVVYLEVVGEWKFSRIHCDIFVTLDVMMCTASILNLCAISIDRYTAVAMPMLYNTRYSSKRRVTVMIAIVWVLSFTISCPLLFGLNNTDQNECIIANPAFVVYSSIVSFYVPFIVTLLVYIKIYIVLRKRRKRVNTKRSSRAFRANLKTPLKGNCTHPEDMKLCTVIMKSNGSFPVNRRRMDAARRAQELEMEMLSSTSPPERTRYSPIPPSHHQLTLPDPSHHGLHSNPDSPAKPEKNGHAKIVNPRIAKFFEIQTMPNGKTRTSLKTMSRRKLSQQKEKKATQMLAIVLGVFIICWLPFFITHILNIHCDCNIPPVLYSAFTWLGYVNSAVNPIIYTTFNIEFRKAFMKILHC

D(3) dopamine receptor [11] = biological target: T3, D(3) dopamine receptor (Rattus norvegicus, UniProt P19020); assay: Binding affinity against Dopamine receptor D3 expressed in CHO-K1 cells, using [3H]spiperone as the radioligand.; format: cell-based
T3 sequence (P19020 whole entry): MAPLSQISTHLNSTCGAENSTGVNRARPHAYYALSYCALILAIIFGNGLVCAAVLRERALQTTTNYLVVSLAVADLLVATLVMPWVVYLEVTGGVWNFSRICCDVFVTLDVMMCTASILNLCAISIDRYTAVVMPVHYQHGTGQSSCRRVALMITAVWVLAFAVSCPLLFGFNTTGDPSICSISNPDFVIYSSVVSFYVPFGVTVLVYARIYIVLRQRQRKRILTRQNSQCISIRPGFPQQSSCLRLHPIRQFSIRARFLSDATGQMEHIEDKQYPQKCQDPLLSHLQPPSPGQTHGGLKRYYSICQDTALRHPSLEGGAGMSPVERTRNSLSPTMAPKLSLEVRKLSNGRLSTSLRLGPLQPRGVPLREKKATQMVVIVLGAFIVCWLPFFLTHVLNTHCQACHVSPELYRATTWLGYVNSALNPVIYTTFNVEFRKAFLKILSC

Rattus norvegicus [12] = assay: The Compound was tested in vivo for DOPA accumulation in hemispheres (cortex) against reserpine-pretreated rats; P=significant partial reduction only at the highest dose tested (50).; format: functional, organism-based
Rattus norvegicus [13] = assay: In vivo for 5-HTP accumulation in corpus striatum against reserpine-pretreated rats.; format: functional
Rattus norvegicus [14] = assay: In vivo for 5-HTP accumulation in limbic system against reserpine-pretreated rats.; format: functional
Rattus norvegicus [15] = assay: In vivo for DOPA accumulation in limbic system against reserpine-pretreated rats.; format: functional
Rattus norvegicus [16] = assay: The Compound was tested in vivo for DOPA accumulation in hemispheres (cortex) against reserpine-pretreated rats; I=inactive at the highest dose tested (3.1).; format: functional, organism-based
D(2) dopamine receptor [17] = biological target: T2, D(2) dopamine receptor; assay: Binding affinity against Dopamine receptor D2 from CHO-K1 cells, using [3H]U-86,170 as the radioligand.; format: cell-based
D(3) dopamine receptor [18] = biological target: T3, D(3) dopamine receptor; assay: Binding affinity against Dopamine receptor D3 from CHO-K1 cells, using [3H]spiperone as the radioligand.; format: cell-based; settings: read-out: Ki
Rattus norvegicus [19] = assay: In vivo for DOPA accumulation in corpus striatum against reserpine-pretreated rats.; format: functional
Rattus norvegicus [20] = assay: In vivo for 5-HTP accumulation in hemispheres (cortex) against reserpine-pretreated rats.; format: functional
Rattus norvegicus [21] = assay: The Compound was tested in vivo for DOPA accumulation in hemispheres (cortex) against reserpine-pretreated rats;I= inactive at the highest dose (12.5); format: functional, organism-based
Rattus norvegicus [22] = assay: The Compound was tested in vivo for DOPA accumulation in hemispheres (cortex) against reserpine-pretreated rats; Iinactive at the highest dose tested (12.5).; format: functional, organism-based
D(3) dopamine receptor [23] = biological target: T3, D(3) dopamine receptor; assay: Compound was tested for binding affinity against Dopamine receptor D3 expressed in CHO-K1 cells, using [3H]spiperone as the radioligand; I= inactive at the highest dose tested (12.5).; format: cell-based
D(2) dopamine receptor [24] = biological target: T2, D(2) dopamine receptor; settings: cho-k1

Row | SMILES | Ki [7] [nM] | Ki [9] [nM] | Ki (D(2) dopamine receptor [10]) [nM] | Ki (D(3) dopamine receptor [11]) [nM] | Ki ([8]; read-out: Ki) [nM] | ED50 (Rattus norvegicus [13]) [µmol/kg] | ED50 (Rattus norvegicus [14]) [µmol/kg] | ED50 (Rattus norvegicus [15]) [µmol/kg] | ED50 (Rattus norvegicus [19]) [µmol/kg] | ED50 (Rattus norvegicus [20]) [µmol/kg] | other results
1 | CN(C)[C@H]1CCc2ccc3[nH]ccc3c2C1 |  |  |  |  |  |  |  |  |  |  | AUC (Rattus norvegicus [1]): 607 pM ml-1; AUC (Rattus norvegicus [2]): 2224 pM ml-1; bioavailability [3]: 72%; Tmax [4]: 2 h; Tmax ([5]; 10 pmol/g/h): 48 h; ED50 ratio [6]: 18
2 | CCCN(CCC)C1CCc2ccc3[nH]cc(Cl)c3c2C1 (stereo not drawn) | 2 | 23 | 9.8 | 15 |  |  |  |  |  |  | Ki ([8]; cho-k1): Not Active; ED50 (Rattus norvegicus [12]): Weak activity
3 | CCCN(CCC)[C@@H]1CCc2ccc3[nH]ccc3c2C1 |  | 16 | 7.4 | 30 | 139 | 0.17 | 0.21 | 0.15 |  |  | ED50 (Rattus norvegicus [16]): inactive
4 | CN(C)[C@@H]1CCc2ccc3[nH]ccc3c2C1 |  |  |  |  |  |  |  |  |  |  | AUC (Rattus norvegicus [1]): 431 pM ml-1; AUC (Rattus norvegicus [2]): 848 pM ml-1; bioavailability [3]: 46%; Tmax [4]: 2 h; T max [5]: 150 h
5 | CCCN(CCC)C1CCc2ccc3[nH]cc(C)c3c2C1 (stereo not drawn) |  | 43 |  | 67 |  |  |  |  |  |  | 
6 | CCCc1c[nH]c2c(F)cc3c(c12)CC(N(CCC)CCC)CC3 (stereo not drawn) | 11 | 8.4 |  |  | 177 |  |  |  |  |  | Ki (D(2) dopamine receptor [17]): 5.9 nM; Ki (D(3) dopamine receptor [18]): 111 nM
7 | CCCN(CCC)[C@@H]1CCc2cc(F)c3[nH]ccc3c2C1 | 1.5 |  |  |  | 142 | 0.7 | 0.53 | 0.49 | 0.63 | 0.51 | Ki (D(2) dopamine receptor [17]): 7.8 nM; ED50 (Rattus norvegicus [21]): inactive
8 | CCCN(CCC)C1CCc2cc(F)c3[nH]ccc3c2C1 (stereo not drawn) | 1.4 |  |  |  | 216 | 0.06 | 1.92 | 1.17 | 1 | 0.54 | Ki (D(2) dopamine receptor [17]): 2.8 nM; ED50 (Rattus norvegicus [21]): inactive
9 | CCCN(CCC)[C@H]1CCc2ccc3[nH]ccc3c2C1 |  | 440 | 17 | 22 | 2280 | 0.34 | 0.21 | 0.51 | 0.82 | 0.23 | ED50 (Rattus norvegicus [16]): inactive
10 | CCCN(CCC)C1CCc2ccc3[nH]ccc3c2C1 (stereo not drawn) |  | 40 | 15 | 37 | 349 | 0.076 | 0.096 | 0.15 | 0.3 | 0.17 | ED50 (Rattus norvegicus [22]): inactive
11 | CCCN(CCC)C1CCc2ccc3[nH]cc(C(=O)c4ccccc4)c3c2C1 (stereo not drawn) | 8.6 |  | 177 | 108 |  |  |  |  |  |  | 
12 | CCCN(CCC)[C@H]1CCc2ccc3[nH]cc(C(=O)C(N)=O)c3c2C1 | 49 | 440 |  |  | 1100 |  |  |  |  |  | Ki (D(3) dopamine receptor [23]): Not Active; Ki (D(2) dopamine receptor [24]): Not Active
